Results published in the supplement of paper PMC10307832.

What was measured:
Assay in all cases: relative viability (nuclei count vs DMSO), 5 days (fraction); higher = more cells survive
[1] = compound: CC1=C(CC(=O)O)c2cc(F)ccc2/C1=C\c1ccc([S+](C)[O-])cc1 [Sulindac] + CC(=O)c1c(C)c2cnc(Nc3ccc(N4CCNCC4)cn3)nc2n(C2CCCC2)c1=O [Palbociclib] (partner 0.5 µM)
Summary of the method: (§1)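 Lung cancer cell lines in 1536-well plates were dosed by pin tool the day after seeding, either with one drug alone or with a fixed anchor-drug dose plus five library-drug doses (not always all listed) in √10 steps. After 5 days, cells were fixed and their nuclei stained in one step (final 0.05% Triton X-100, 1% formaldehyde, 1 ug/ml Hoechst), then counted on 4× images. Relative viability is the nuclei count in treated wells divided by that in vehicle wells. Values are medians of duplicate plates.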

[2] = compound: CC1=C(CC(=O)O)c2cc(F)ccc2/C1=C\c1ccc([S+](C)[O-])cc1 [Sulindac] + CC(C)C[C@H](NC(=O)[C@H](Cc1ccccc1)NC(=O)c1cnccn1)B(O)O [Bortezomib] (partner 0.002 µM)
Summary of the method: as §1

[3] = compound: CN[C@@H]1C[C@H]2O[C@@](C)([C@@H]1OC)n1c3ccccc3c3c4c(c5c6ccccc6n2c5c31)C(=O)NC4 [Staurosporine] + C[C@]1(O)C[C@@H](c2nc(-c3ccc4ccc(-c5ccccc5)nc4c3)c3c(N)nccn32)C1 [Linsitinib] (partner 1 µM)
Summary of the method: as §1

[4] = compound: O=c1[nH]cc(F)c(=O)[nH]1 [5-Fluorouracil] + COc1cccc2cc(-c3nc([C@H]4CC[C@H](C(=O)O)CC4)n4ncnc(N)c34)[nH]c12 [OSI-027] (partner 0.5 µM)
Summary of the method: as §1

Cell Line | relative viability ([1]; first compound 0.08 µM) | relative viability ([1]; first compound 0.253 µM) | relative viability ([1]; first compound 0.8 µM) | relative viability ([1]; first compound 2.53 µM) | relative viability ([1]; first compound 8 µM) | relative viability ([2]; first compound 0.08 µM) | relative viability ([2]; first compound 0.253 µM) | relative viability ([2]; first compound 0.8 µM) | relative viability ([2]; first compound 2.53 µM) | relative viability ([2]; first compound 8 µM) | relative viability ([3]; first compound 0.005 µM) | relative viability ([3]; first compound 0.01581 µM) | relative viability ([3]; first compound 0.05 µM) | relative viability ([3]; first compound 0.1581 µM) | relative viability ([3]; first compound 0.5 µM) | relative viability ([4]; first compound 0.02 µM) | relative viability ([4]; first compound 0.2 µM) | relative viability ([4]; first compound 0.6325 µM) | relative viability ([4]; first compound 2 µM)
NCI-H2087 | 0.224 | 0.273 | 0.228 | 0.239 | 0.224 | 1.17 | 0.835 | 0.695 | 0.892 | 1.09 | 0.71 | 0.712 | 0.356 | 0.296 | 0.153 | 0.555 | 0.563 | 0.464 | 0.346
NCI-H2126 | 0.344 | 0.333 | 0.395 | 0.372 | 0.361 | 1.2 | 1.15 | 1.06 | 1.2 | 1.19 | 0.797 | 0.553 | 0.461 | 0.376 | 0.366 | 0.589 | 0.39 | 0.302 | 0.365
NCI-H2228 | 0.876 | 0.967 | 0.487 | 0.864 | 0.831 | 1.31 | 1.02 | 0.45 | 1.31 | 1.01 | 0.608 | 0.483 | 0.141 | 0.183 | 0.113 | 0.404 | 0.55 | 0.332 | 0.329
NCI-H2347 | 0.42 | 0.459 | 0.453 | 0.379 | 0.461 | 0.884 | 0.97 | 0.704 | 0.86 | 1.11 | 0.899 | 0.732 | 0.402 | 0.446 | 0.351 | 0.939 | 0.322 | 0.298 | 0.329
NCI-H2405 | 0.531 | 0.525 | 0.5 | 0.509 | 0.593 | 1.01 | 1.01 | 0.888 | 0.96 | 1.06 | 0.214 | 0.127 | 0.113 | 0.0901 | 0.0874 | 0.633 | 0.661 | 0.701 | 0.604
NCI-H3122 | 0.161 | 0.183 | 0.218 | 0.204 | 0.205 | 1.05 | 1.01 | 1.1 | 1.04 | 1.02 | 1.11 | 0.561 | 0.874 | 0.544 | 0.247 | 1.04 | 0.871 | 0.349 | 
PC-3 [JPC-3] | 0.477 | 0.521 | 0.596 | 0.502 | 0.545 | 0.967 | 0.796 | 1.02 | 0.907 | 0.862 | 0.986 |  | 0.723 | 0.559 | 0.478 | 0.824 | 0.805 | 0.726 | 0.625
PC-14 | 0.562 | 0.497 | 0.489 | 0.567 | 0.758 | 1.05 | 0.902 |  | 0.929 | 0.783 | 0.892 | 0.633 | 0.0982 | 0.0802 | 0.0859 | 0.876 | 0.976 | 0.747 | 0.296
RERF-LC-KJ | 1.1 | 1.11 | 1.04 | 1.12 | 1.07 | 1.23 | 1.08 | 0.92 | 1.07 | 1.25 | 0.895 | 0.804 | 0.431 | 0.213 | 0.166 | 0.609 | 0.553 | 0.543 | 0.471
SK-LU-1 | 0.387 | 0.417 | 0.464 | 0.369 | 0.408 | 1.7 | 1.07 |  | 0.906 | 1.8 | 0.313 | 0.263 | 0.205 | 0.2 | 0.145 | 0.374 | 0.309 | 0.342 | 0.321
SW 1573 | 0.451 | 0.406 | 0.362 | 0.336 | 0.464 |  | 1 |  | 1.19 | 1.13 | 0.586 | 0.449 | 0.144 | 0.131 | 0.107 | 0.548 | 0.73 | 0.633 | 0.327
